Measured values: patent publication US9371336B2, “Compounds for treating spinal muscular atrophy” (PTC Therapeutics Inc., priority 2012, dated 2016)

How the values were obtained:
[1] = system: SMN2 minigene mRNA (SMN2-A minigene construct); test: SMN2 minigene mRNA splicing RT-qPCR assay in cultured cells; type: cell-based, human; conditions: Homo sapiens, HEK293-H; HEK293H cells stably transfected with SMN2-A minigene, 24 hours, 7-point concentration data; concentration giving 1.5-fold SMN2 full length mRNA relative to vehicle-treated cells; read-out: EC1.5x for production of full length SMN2 mRNA
Outline: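 Full-length SMN2 minigene mRNA, measured by exon 7/luciferase-specific RT-qPCR that excludes endogenous SMN1/SMN2, was normalized to GAPDH and expressed relative to vehicle-treated cells via modified ΔΔCt. Stably transfected HEK293H cells received compound (7-point, 3.16-fold series, duplicates) for 24 h at 37 °C.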

Smn protein = Smn protein assay (HTRF) in cultured cells (SMA patient fibroblasts GM03813); type: cell-based, human; conditions: 48 hours; for maximum fold (Fold) increase of Smn protein: SMA patient fibroblast cells, 7-point concentration curve, relative to vehicle control; for EC1.5x for Smn protein expression: SMA patient fibroblast cells (GM03813), HTRF, 7-point concentration data, concentration producing 1.5 times Smn protein vs DMSO vehicle control
Outline: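 Smn level is expressed as fold over vehicle, from blank-corrected ΔF of the 665/620 nm HTRF ratio. Readout used anti-SMN d2 and kryptate antibodies on RIPA lysates. GM03813 SMA fibroblasts had 48 h exposure at 37° C to seven 3.16-fold compound dilutions, run in triplicate.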

Row | SMILES | EC (1.5-fold) [1] | maximum fold (Fold) increase of Smn protein (Smn protein) | melting point | EC1.5x for Smn protein expression (Smn protein)
1 | Cl.O=c1oc2cc(N3CCNCC3)ncc2cc1-c1cn2ccccc2n1 [Cpd 42, 3-(imidazo[1,2-a]pyridin-2-yl)-7-(piperazin-1-yl)-2H-pyrano[3,2-c]pyridin-2-one hydrochloride] | 3 to 30 µM | ** (a fold increase between >1.2 and ≦1.35 is indicated by two stars (**)) | 278 to 284 °C | –
2 | Cl.O=c1oc2nc(N3CCCNCC3)ccc2cc1-c1cn2ccccc2n1 [Cpd 45, 7-(1,4-diazepan-1-yl)-3-(imidazo[1,2-a]pyridin-2-yl)-2H-pyrano[2,3-b]pyridin-2-one hydrochloride] | 0.1 to 0.3 µM | **** (a fold increase between >1.5 and ≦1.65 is indicated by four stars (****)) | 265 to 267 °C | *** (an EC1.5× between >0.3 μM and ≦1 μM is indicated by three stars (***))
3 | Cl.O=c1oc2nc(N3CCCNCC3)ccc2cc1-c1cn2cccc(F)c2n1 [Cpd 46, 7-(1,4-diazepan-1-yl)-3-(8-fluoroimidazo[1,2-a]pyridin-2-yl)-2H-pyrano[2,3-b]pyridin-2-one hydrochloride] | ≤ 0.1 µM | **** (a fold increase between >1.5 and ≦1.65 is indicated by four stars (****)) | 267 to 269 °C | **** (an EC1.5×≦0.3 μM is indicated by four stars (****))
4 | Cl.O=c1oc2nc(N3CCCNCC3)ccc2cc1-c1cn2cccc(Cl)c2n1 [Cpd 47, 3-(8-chloroimidazo[1,2-a]pyridin-2-yl)-7-(1,4-diazepan-1-yl)-2H-pyrano[2,3-b]pyridin-2-one hydrochloride] | ≤ 0.1 µM | ***** (a fold increase >1.65 is indicated by five stars (*****)) | 252 to 255 °C | **** (an EC1.5×≦0.3 μM is indicated by four stars (****))
5 | CN1CCCN(c2ccc3cc(-c4cn5ccccc5n4)c(=O)oc3n2)CC1 [Cpd 48, 3-(imidazo[1,2-a]pyridin-2-yl)-7-(4-methyl-1,4-diazepan-1-yl)-2H-pyrano[2,3-b]pyridin-2-one] | 0.1 to 0.3 µM | **** (a fold increase between >1.5 and ≦1.65 is indicated by four stars (****)) | 271 to 274 °C | *** (an EC1.5× between >0.3 μM and ≦1 μM is indicated by three stars (***))
6 | CN1CCCN(c2ccc3cc(-c4cn5cccc(F)c5n4)c(=O)oc3n2)CC1 [Cpd 49, 3-(8-fluoroimidazo[1,2-a]pyridin-2-yl)-7-(4-methyl-1,4-diazepan-1-yl)-2H-pyrano[2,3-b]pyridin-2-one] | ≤ 0.1 µM | **** (a fold increase between >1.5 and ≦1.65 is indicated by four stars (****)) | 269 to 272 °C | *** (an EC1.5× between >0.3 μM and ≦1 μM is indicated by three stars (***))
7 | CN1CCCN(c2ccc3cc(-c4cn5cccc(Cl)c5n4)c(=O)oc3n2)CC1 [Cpd 50, 3-(8-chloroimidazo[1,2-a]pyridin-2-yl)-7-(4-methyl-1,4-diazepan-1-yl)-2H-pyrano[2,3-b]pyridin-2-one] | ≤ 0.1 µM | ***** (a fold increase >1.65 is indicated by five stars (*****)) | 245 to 246 °C | **** (an EC1.5×≦0.3 μM is indicated by four stars (****))
8 | Cl.O=c1oc2nc(N3CCCNCC3)ccc2cc1-c1nc2ccccc2s1 [Cpd 51, 3-(1,3-benzothiazol-2-yl)-7-(1,4-diazepan-1-yl)-2H-pyrano[2,3-b]pyridin-2-one hydrochloride] | 0.3 to 1 µM | ** (a fold increase between >1.2 and ≦1.35 is indicated by two stars (**)) | 284 to 286 °C | –
9 | Cl.O=c1oc2nc(N3CCCNCC3)ccc2cc1-c1nc2ccccc2o1 [Cpd 52, 3-(1,3-benzoxazol-2-yl)-7-(1,4-diazepan-1-yl)-2H-pyrano[2,3-b]pyridin-2-one hydrochloride] | 3 to 30 µM | * (A maximum fold increase ≦1.2 is indicated by one star (*)) | 243 to 245 °C | –
10 | Cc1ccn2nc(-c3cc4ccc(N5CCN(C)CC5)nc4oc3=O)cc2c1 [Cpd 53, 7-(4-methylpiperazin-1-yl)-3-(5-methylpyrazolo[1,5-a]pyridin-2-yl)-2H-pyrano[2,3-b]pyridin-2-one] | 0.1 to 0.3 µM | *** (a fold increase between >1.35 and ≦1.5 is indicated by three stars (***)) | 264 to 268 °C | –
11 | CN1CCN(c2ccc3cc(-c4cn5ccsc5n4)c(=O)oc3n2)CC1 [Cpd 54, 3-(imidazo[2,1-b][1,3]thiazol-6-yl)-7-(4-methylpiperazin-1-yl)-2H-pyrano[2,3-b]pyridin-2-one] | 0.1 to 0.3 µM | **** (a fold increase between >1.5 and ≦1.65 is indicated by four stars (****)) | 268 to 272 °C | *** (an EC1.5× between >0.3 μM and ≦1 μM is indicated by three stars (***))
12 | Cc1cn2cc(-c3cc4cnc(N5CCN(C)CC5)cc4oc3=O)nc2s1 [Cpd 55, 3-(2-methylimidazo[2,1-b][1,3]thiazol-6-yl)-7-(4-methylpiperazin-1-yl)-2H-pyrano[3,2-c]pyridin-2-one] | 1 to 3 µM | *** (a fold increase between >1.35 and ≦1.5 is indicated by three stars (***)) | 282 to 286 °C | ** (an EC1.5× between >1 and ≦3 μM is indicated by two stars (**))
13 | CN1CCCN(c2ccc3cc(-c4nc5ccccc5s4)c(=O)oc3n2)CC1 [Cpd 56, 3-(1,3-benzothiazol-2-yl)-7-(4-methyl-1,4-diazepan-1-yl)-2H-pyrano[2,3-b]pyridin-2-one] | 0.1 to 0.3 µM | ** (a fold increase between >1.2 and ≦1.35 is indicated by two stars (**)) | 274 to 276 °C | * (An EC1.5× for Smn protein expression between >3 μM and ≦10 μM is indicated by one star (*))
14 | C[C@@H]1CN(c2ccc3cc(-c4cn5ccccc5n4)c(=O)oc3n2)C[C@H](C)N1 [Cpd 60, 7-[(3R,5S)-3,5-dimethylpiperazin-1-yl]-3-(imidazo[1,2-a]pyridin-2-yl)-2H-pyrano[2,3-b]pyridin-2-one] | ≤ 0.1 µM | *** (a fold increase between >1.35 and ≦1.5 is indicated by three stars (***)) | 283 to 285 °C | ** (an EC1.5× between >1 and ≦3 μM is indicated by two stars (**))
15 | Cc1ccn2cc(-c3cc4ccc(N5CCN(C)[C@@H](C)C5)nc4oc3=O)nc2c1 [Cpd 61, 7-[(3S)-3,4-dimethylpiperazin-1-yl]-3-(7-methylimidazo[1,2-a]pyridin-2-yl)-2H-pyrano[2,3-b]pyridin-2-one] | ≤ 0.1 µM | **** (a fold increase between >1.5 and ≦1.65 is indicated by four stars (****)) | 246 to 250 °C | **** (an EC1.5×≦0.3 μM is indicated by four stars (****))
16 | Cc1ccn2cc(-c3cc4ccc(N5CCN(C)C[C@@H]5C)nc4oc3=O)nc2c1 [Cpd 62, 7-[(2S)-2,4-dimethylpiperazin-1-yl]-3-(7-methylimidazo[1,2-a]pyridin-2-yl)-2H-pyrano[2,3-b]pyridin-2-one] | ≤ 0.1 µM | **** (a fold increase between >1.5 and ≦1.65 is indicated by four stars (****)) | 242 to 246 °C | **** (an EC1.5×≦0.3 μM is indicated by four stars (****))
17 | Cc1ccn2cc(-c3cc4ccc(N5CCCNCC5)nc4oc3=O)nc2c1 [Cpd 65, 7-(1,4-diazepan-1-yl)-3-(7-methylimidazo[1,2-a]pyridin-2-yl)-2H-pyrano[2,3-b]pyridin-2-one] | 0.3 to 1 µM | **** (a fold increase between >1.5 and ≦1.65 is indicated by four stars (****)) | 239 to 241 °C | **** (an EC1.5×≦0.3 μM is indicated by four stars (****))
18 | Cc1ccc2nc(-c3cc4ccc(N5CCCNCC5)nc4oc3=O)cn2c1 [Cpd 66, 7-(1,4-diazepan-1-yl)-3-(6-methylimidazo[1,2-a]pyridin-2-yl)-2H-pyrano[2,3-b]pyridin-2-one] | 0.1 to 0.3 µM | *** (a fold increase between >1.35 and ≦1.5 is indicated by three stars (***)) | 240 to 243 °C | ** (an EC1.5× between >1 and ≦3 μM is indicated by two stars (**))
19 | Cc1ccc2nc(-c3cc4ccc(N5C[C@@H](C)N[C@@H](C)C5)nc4oc3=O)cn2c1 [Cpd 67, 7-[(3R,5S)-3,5-dimethylpiperazin-1-yl]-3-(6-methylimidazo[1,2-a]pyridin-2-yl)-2H-pyrano[2,3-b]pyridin-2-one] | ≤ 0.1 µM | **** (a fold increase between >1.5 and ≦1.65 is indicated by four stars (****)) | 248 to 251 °C | *** (an EC1.5× between >0.3 μM and ≦1 μM is indicated by three stars (***))
